In patent US20080027145A1, “Therapeutic Molecules and Methods for Generating and/or Selecting Same” (priority 2004, published 2008):
pIC50: −log10 of the molar value. Entries after “also recorded” stand apart in the source; their conditions may differ. Like-named read-outs stand apart in the source and are kept apart here. Ends that are not written are not given here.

Columns and labels:
[1] = system: pro-survival proteins (Bcl-2, Bcl-xL, Bcl-w, Mcl-1, A1); assay: Solution competition assay, statements spanning several pro-survival proteins; format: binding, human and mouse; conditions: for binding preference among pro-survival proteins: Bcl-2, Bcl-xL, Bcl-w, Mcl-1, A1
Protocol: (§1) The relative affinities of BH3 peptides for pro-survival Bcl-2 proteins were assessed by comparing their abilities to compete with immobilized ^wtBimBH3 peptide for binding to Bcl-2-like proteins (Wilson-Annan et al., Supra). A fixed sub-saturating amount (10 nM) of a pro-survival Bcl-2 protein was incubated with varying amounts of competitor BH3 peptide in HBS for >2 hr on ice. The mixtures were then injected over a sensor chip containing a channel bearing mouse ^wtBimBH3 and a control channel with mouse ^4EBimBH3 immobilized. The baseline response (control channel) was subtracted to obtain the absolute binding response. Taking the response for the pro-survival protein alone as the maximal response (100%), the relative residual binding (%) in the presence of increasing amounts of competitor peptides at a given injection time point (430 s) was then calculated. […] Theoretically, IC50=[A]/2+KD, where [A] is the analyte concentration.
(§2) Some of recombinant proteins (Bcl-2, Bcl-xL, A1) studied contain cysteine residues but the behavior of Bcl-2 or Bcl-xL was not affected by dithiothreitol (DTT).
(§3) To assess if other BH3 peptides bind pro-survival proteins similarly, we directly compared their binding affinities in solution using a competitive binding assay. In such assays, the quality and absolute quantity of target proteins are less critical than in direct binding, and solution binding precludes the steric hindrance encountered with some immobilized peptides. FIG. 1C illustrates the approach: pre-incubation of Bcl-xL in solution with increasing amounts of BikBH3 reduced its binding to ^wtBimBH3 (FIG. 1D). From the attenuation in binding, the IC50 (competitor peptide concentration that halves binding) of BikBH3 can be calculated (FIG. 1E). As the IC50 values reflect relative binding affinities (see Experimental Procedures), we used this assay to compare the binding affinities of eight BH3 peptides (Table 3) to the five pro-survival proteins. […] Their binding properties fell into several classes (FIG. 2B and FIG. 4). […] Contrary to the prevailing view, the pro-survival proteins also had unique patterns for BH3 binding: Bcl-xL behaved like Bcl-w, with Bcl-2 more distinct, whereas Mcl-1 and A1 formed a separate group (FIG. 2B).

Mcl-1 ΔN151 ΔC23 = biological target: T1, Mcl-1 ΔN151 ΔC23 (Mus musculus, UniProt P97287); assay: Direct binding to immobilized BH3 peptide, Biacore biosensor; conditions: BadBH3 or NoxaBH3 immobilized chip
T1 construct: mouse Mcl-1 (Acc. no. NP_031588; residues 152-308); GST (N, cleaved yes); made in house
Protocol: (§4) Recombinant human Bcl-xL ΔC24, mouse Mcl-1 ΔN151 ΔC23 and mouse A1 ΔC20 were expressed as GST fusion proteins and cleaved off Glutathione Sepharose columns as described (Day et al., Cell Death Differ 6:1125-1132, 1999; Hinds et al., EMBO J 22:1497-1507, 2003).
(§5) Affinity measurements were performed at room temperature on a Biacore 3000 biosensor (Biacore) with HBS (10 mM HEPES pH 7.2, 150 mM NaCl, 3.4 mM EDTA, 0.005% Tween 20) as the running buffer. Mouse 26-mer ^wtBimBH3, ^4EBimBH3 mutant, BadBH3, NoxaBH3 or control irrelevant peptides were immobilized onto CM5 sensor chips using amine-coupling chemistry (Wilson-Annan et al., Supra). To assess the binding affinities of pro-survival Bcl-2-like proteins for BimBH3 directly, the proteins were directly injected into the sensor chip at 20 μl/min. Residual bound proteins were desorbed with 50 mM NaOH or 6 M GuHCl (pH 7.2), followed by two washes with running buffer. Binding kinetics were derived from sensorgrams, following subtraction of baseline responses, using BIA evaluation software (version 3, Biacore) (Wilson-Annan et al., Supra).
(§6) The binding constants of the pro-survival molecules for ^wtBimBH3, immobilized on sensor chip, were determined using biosensor experiments as described in Hinds et al., Supra; Wilson-Annan et al., Supra.

A1 ΔC20 = biological target: T2, A1 ΔC20 (Mus musculus, UniProt Q07440); assay: as above; conditions: BadBH3 or NoxaBH3 immobilized chip
T2 construct: mouse A1 (Acc. no. NP_033872; residues 1-152); GST (N, cleaved yes); made in house
T2 sequence (Q07440 1-152): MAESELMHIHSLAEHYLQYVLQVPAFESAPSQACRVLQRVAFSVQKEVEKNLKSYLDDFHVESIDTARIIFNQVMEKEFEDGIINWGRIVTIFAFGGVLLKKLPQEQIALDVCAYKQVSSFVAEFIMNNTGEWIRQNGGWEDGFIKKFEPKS
Protocol: as §4, §5, §6

Bcl-xL = biological target: T3, Bcl-xL (Homo sapiens, UniProt Q07817); assay: Solution competition assay (competition with immobilized wtBimBH3, biosensor); format: binding; conditions: for fold tighter than wild-type peptide: IC50 ratio to wild-type Noxa BH3; for increase in binding to Bcl-xL: versus wt NoxaBH3
T3 construct: Human Bcl-xL (Acc. no. NP_612815; residues 1-209); GST (N, cleaved yes); made in house
Protocol: as §1, §2, §3

Bcl-2 = biological target: T4, Bcl-2 (Homo sapiens, UniProt P10415); assay: as above; format: binding; conditions: for binding to Bcl-2: Noxa mutant peptides
T4 construct: Human Bcl-2 (Acc. no. NP_000624; residues 1-217); made in house
Protocol: as §1, §2, §3

Bcl-w = biological target: T5, Bcl-w (Homo sapiens, UniProt Q92843, A128E/C29S); assay: as above; format: binding
T5 construct: human Bcl-w (Acc. no. NP_004041; residues 1-164; C29S A128E); made in house
T5 sequence (Q92843 1-164 C29S/A128E): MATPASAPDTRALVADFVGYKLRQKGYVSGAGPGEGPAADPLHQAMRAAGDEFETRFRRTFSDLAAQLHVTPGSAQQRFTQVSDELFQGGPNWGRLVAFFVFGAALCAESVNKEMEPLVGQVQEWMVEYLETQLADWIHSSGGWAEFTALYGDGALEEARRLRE
Protocol: as §1, §2, §3

Mcl-1 = biological target: T6, Mcl-1 (Mus musculus, UniProt P97287); assay: as above; format: binding; conditions: versus wt NoxaBH3
T6 construct: mouse Mcl-1 (Acc. no. NP_031588; residues 152-308); GST (N, cleaved yes); made in house
Protocol: as §1, §2, §3

[2] = system: mouse embryonic fibroblasts (MEFs); assay: Killing of MEFs after retroviral expression, viability 24 hours after infection; format: cell-based; conditions: retroviral expression, 24 hours after infection
Protocol: FIG. 7 is a graphical representation showing that BH3-only proteins that bind selective targets have weak killing activity. (A) The affinities of BH3-only peptides for pro-survival proteins (tabulated in FIG. 3A) were inversely plotted to facilitate comparison of the patterns of BH3 binding. […] Immortalized 3T9 MEFs were infected with retroviruses expressing only GFP (control), or one of the BH3-only proteins and GFP. The viability of the infected (GFP^+ve) cells was determined by PI exclusion 24 hours after infection. The histograms represent means±1SD of at least 3 experiments. […] The filter was probed with a rat monoclonal anti-FLAG antibody. *Degradation product of Mcl-1. […] Viability of MEFs infected with retroviruses encoding the indicated proteins (GFP^+ve) was analyzed 24 hours after infection. The histograms represent means±1SD of at least 3 experiments. (E) Long-term survival of MEFs infected with BH3 expressing retroviruses. One hundred retrovirally-infected cells were plated and the absolute number of GFP^+ve colonies formed after 6 days scored. […] The data represent the average number of GFP^+ve colonies formed±1SD from at least 3 experiments. To assess the biological relevance of the selective binding, retroviral delivery was used to compare the ability of different BH3-only proteins to kill wild-type mouse embryonic fibroblasts (MEFs). To monitor expression of the introduced gene, a vector (pMIG) in which its expression is coupled via an internal ribosomal entry site (IRES) to that of green fluorescent protein (GFP) was used (Van Parijs et al., Immunity 11:281-288, 1999). The cells were efficiently infected (>90%) and the introduced BH3-only proteins were comparably expressed. Viability of the infected (GFP^+ve) cells was scored 24 hours after infection (FIGS. 7A, 7B) and in long-term colony assays (FIG. 7E). […] Thus, the neutralization of Mcl-1 by Noxa should be complemented by co-expression of a BadBH3 to neutralize Bcl-2 and Bcl-xL in MEFs (FIG. 8A).

[3] = system: mouse embryonic fibroblasts (MEFs); assay: Long-term colony assay of retrovirally infected MEFs; format: cell-based; conditions: colonies after 6 days
Protocol: FIG. 7 is a graphical representation showing that BH3-only proteins that bind selective targets have weak killing activity. (A) The affinities of BH3-only peptides for pro-survival proteins (tabulated in FIG. 3A) were inversely plotted to facilitate comparison of the patterns of BH3 binding. […] Immortalized 3T9 MEFs were infected with retroviruses expressing only GFP (control), or one of the BH3-only proteins and GFP. The viability of the infected (GFP^+ve) cells was determined by PI exclusion 24 hours after infection. The histograms represent means±1SD of at least 3 experiments. […] The filter was probed with a rat monoclonal anti-FLAG antibody. *Degradation product of Mcl-1. […] Viability of MEFs infected with retroviruses encoding the indicated proteins (GFP^+ve) was analyzed 24 hours after infection. The histograms represent means±1SD of at least 3 experiments. (E) Long-term survival of MEFs infected with BH3 expressing retroviruses. One hundred retrovirally-infected cells were plated and the absolute number of GFP^+ve colonies formed after 6 days scored. […] The data represent the average number of GFP^+ve colonies formed±1SD from at least 3 experiments. […] Viability of the infected (GFP^+ve) cells was scored 24 hours after infection (FIGS. 7A, 7B) and in long-term colony assays (FIG. 7E).

[4] = competitor peptide vs immobilized wtBimBH3, read-out: IC50 for Bcl-xL

T3 sequence (Q07817 1-209): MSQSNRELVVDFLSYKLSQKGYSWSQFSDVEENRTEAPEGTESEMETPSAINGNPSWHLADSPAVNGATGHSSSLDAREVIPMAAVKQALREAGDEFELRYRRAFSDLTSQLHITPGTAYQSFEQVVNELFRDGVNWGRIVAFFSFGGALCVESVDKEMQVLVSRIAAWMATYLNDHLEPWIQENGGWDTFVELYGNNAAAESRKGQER
T4 sequence (P10415 1-217): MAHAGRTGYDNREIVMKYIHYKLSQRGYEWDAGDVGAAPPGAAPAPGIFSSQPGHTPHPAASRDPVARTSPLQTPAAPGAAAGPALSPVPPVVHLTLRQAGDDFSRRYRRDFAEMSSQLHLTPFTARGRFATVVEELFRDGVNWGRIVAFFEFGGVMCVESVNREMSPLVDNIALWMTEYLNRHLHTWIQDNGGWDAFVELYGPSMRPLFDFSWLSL
T6 sequence (P97287 152-308): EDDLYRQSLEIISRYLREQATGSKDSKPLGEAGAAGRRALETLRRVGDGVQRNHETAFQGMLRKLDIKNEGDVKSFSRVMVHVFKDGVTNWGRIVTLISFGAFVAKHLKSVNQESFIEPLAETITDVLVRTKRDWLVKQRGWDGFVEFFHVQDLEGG
T1 sequence (P97287 152-308): as above

## BikBH3: human Bik BH3 peptide residues 51-75, MEGSDALALRLACIGDEMDVSLRAP
[1]
  binding preference among pro-survival proteins: preferred Bcl-xL, Bcl-w and A1 over Bcl-2 or Mcl-1

## BidBH3: human Bid BH3 peptide residues 81-104, DIIRNIARHLAQVGDSMDRSIPPG
[1]
  binding preference among pro-survival proteins: preferred Bcl-xL, Bcl-w and A1 over Bcl-2 or Mcl-1

## PAELEVECATQLRRFGDKLNFRQKLL [Noxa (18-43)]
Mcl-1 ΔN151 ΔC23
  binding of Mcl-1 to immobilized peptide: bound
A1 ΔC20
  binding of A1 to immobilized peptide: bound
[1]; listed as Noxa BH3
  binding preference among pro-survival proteins: selectively binds Mcl-1 and A1
[1]; listed as NoxaBH3
  binding preference among pro-survival proteins: highly selective for Mcl-1 and A1
[1]; Mcl-1 and A1
  IC50: nM range
Bcl-xL; Bcl-xL, b59-60 do not name the target, values match Table 4, read-out: IC50
  pIC50: < 4.00
Bcl-xL; [4]
  pIC50: < 4.00
Bcl-2; Bcl-2, one of 'the others'
  pIC50: < 4.00
Bcl-w; Bcl-w, one of 'the others', read-out: IC50
  pIC50: < 4.00
Bcl-w; competitor peptide vs immobilized wtBimBH3, read-out: IC50 for Bcl-w
  pIC50: < 4.00

## H-PAELEVECATQLRRIGDELNFRQKLL-OH [Noxa (18-43) mt3]
Mcl-1
  Mcl-1 binding: slightly improved
Bcl-xL; [4]
  pIC50: 6.96
Bcl-2
  binding to Bcl-2: remained weak

## Bims: Bim isoform, the most potent, expressed from retrovirus in MEFs
[2]
  killing of MEFs: soon died
[3]
  long-term survival, GFP+ve colonies: failed to generate colonies; also recorded: No colonies

## H-PAELEVECATQLRRIGDKLNFRQKLL-OH [Noxa (18-43) mt2]
Bcl-xL
  fold tighter than wild-type peptide: at least 90 fold
  increase in binding to Bcl-xL: more than 100 fold
Bcl-2
  binding to Bcl-2: remained weak

## Hrk: BH3-only protein Hrk expressed from retrovirus in MEFs
[2]
  killing of MEFs: much less potent killers

## BmfBH3: mouse Bmf BH3 peptide residues 128-151, HRAEVQIARKLQCIADQFHRLHTQ
[1]
  binding preference among pro-survival proteins: showed similar preferences

## PumaBH3: human Puma BH3 peptide residues 130-155, EEQWAREIGAQLRRMADDLNAQYERR
[1]
  binding preference among pro-survival proteins: comparable affinities for all the pro-survival proteins

## H-PAELEVECATQLRRFGDELNFRQKLL-OH [Noxa (18-43) mt1]
Bcl-xL
  fold tighter than wild-type peptide: at least 17 fold
  increase in binding to Bcl-xL: more than 20 fold
Bcl-2
  binding to Bcl-2: remained weak
